Experimental findings from patent US20170002393A1, “COMPOSITIONS AND METHODS FOR ANTIBODY PRODUCTION” (IMMUNOGEN, INC., priority 2013, published 2017) are described below.

Converted amounts (≈) assume the structure as drawn. Where only a bound is given, the exact number is not on record here.

The subject of one data set is humanized FOLR1 IgG1. Description: Antibody fragmentation in HCCF with 20% (v/v) microfluidized CHO cells (non-reducing SDS-Protein Lab Chip). Type of data set: biochemical. Conditions: 1 mM of each additive, 6 h; no additive control 78%.
A short description of another data set: physchem. The note with it: thermodynamic from solid.
The test system of data set [1] is recombinant humanized IgG1 antibody. In words: Antibody fragmentation in HCCF kept under nitrogen, air or oxygen with or without CDME (non-reducing SDS-Protein Lab Chip). Format: biochemical. The protocol:
A CHO cell culture producing recombinant humanized IgG1 antibody was subjected to centrifugation and the resulting harvest cell culture fluid (HCCF) was frozen at −80° C. […] At various time points, samples were quenched with N-ethylmaleimide (NEM), purified using immobilized Protein A, and analyzed for fragments using non-reducing SDS-Protein Lab Chip electrophoresis. […] In contrast, the sample overlayed with air became less fragmented with time, reaching a plateau of about 25% fragmentation at 20 hours.

For data set [2] the following is noted: 50 mM potassium phosphate buffer, pH adjusted to 7.1.
The test system of data set [3] is Humanized anti-folate receptor 1 (FOLR1) IgG1. Description: Thiol per antibody (DTNB/Ellman's) after incubating immobilized antibody with damaged CHO cell supernatant. Format: biochemical. The note with it: 0.05 mM agent, 2.2 hours; antibody eluted from Protein A bead, neutralized to pH 7. Here is the method: For all of the examples described below, cell damage was simulated by multiple freeze-thaw cycles of cells, by addition of RIPA buffer (50 mM Tris-HCl, pH 7.4, 1% NP-40, 0.5% sodium deoxycholate, 0.1% sodium dodecylsulfate), or by using microfluidizer. This damaged cell supernatant or lysate was then incubated with a buffered solution containing antibody with or without the anti-reduction agent being tested, following which the extent of the antibody-disulfide reduction was measured using Ellman's assay for thiol (P. W. Riddles, R. L. Blakeley, and B. Zerner, Methods Enzymol., 91, 49-60, 1983) or by non-reducing SDS protein LabChip analysis. The total thiol level present in the mixture of damaged cell supernatant/lysate was measured initially. […]
The concentration of thiol in the suspension of damaged CHO cells was measured as 4 mM using DTNB ((5,5′-dithiobis(2-nitrobenzoic acid); Ellman's reagent). Humanized anti-folate receptor 1 (FOLR1) IgG1 (1 mg) was immobilized on 0.05 ml of Protein A bead (RepliGen) and then treated with pre-mixed 0.5 ml PBS and 0.1 ml damaged CHO cell supernatant. The concentration of thiol in this mixture was 0.67 mM. […]
On the technique in general: DTNB colorimetry detects thiols as they appear.

Procedure for humanized FOLR1 IgG1: The microfluidization was carried out using 3 liter CHO cells from a bioreactor, which were resuspended into 300 ml PBS, processed through microfluidizer, centrifuged and filtered through 0.22 micrometer membrane. […] The samples were quenched with 5 mM N-ethylmaleimide (NEM), purified using immobilized Protein A, and subjected to non-reducing SDS-Protein Lab Chip electrophoretic analysis.

Take `O=C1c2ccccc2C(=O)c2cc(S(=O)(=O)O)ccc21` [AQS, anthraquinone-2-sulfonic acid]: the “fragmentation compared to no additive control” value in the data set with humanized FOLR1 IgG1 is recorded as “much lower fragmentations”.
Regarding `CCOC(=O)[C@@H](N)CSSC[C@H](N)C(=O)OCC` [CDEE, L-cystine diethyl ester], the solubility in the data set “physchem” (pH 7, aqueous buffer) was more than 100 mM; in “physchem” (water), not below 1000 mM.
For the molecule `COC(=O)[C@@H](N)CSSC[C@H](N)C(=O)OC` [CDME, L-cystine dimethyl ester], the “fragmentation compared to no additive control” value in the data set with humanized FOLR1 IgG1 was “much lower fragmentations”. Besides, the “time up to which the antibody was protected from reduction” value in data set [1] (1 mM CDME with nitrogen) was “up to 20 hours”; in data set [1] (2 mM CDME with nitrogen), not above 45 h. In addition, the “fragmentation with air overlay plus CDME versus air alone” value in data set [1] (~1 mM CDME with air overlay, up to 72 hours) is on record as “lowered the fragmentation further”. In addition, the “concentration dissolved in buffer” value in data set [2] is not below 5000 µM.
Turning to `Cl.Cl.N[C@@H](CSSC[C@H](N)C(=O)O)C(=O)O` [L-cystine dihydrochloride, reference compound], the “concentration dissolved in buffer” value in data set [2] is given as “less than 5 mM”.
Regarding `N[C@@H](CSSC[C@H](N)C(=O)O)C(=O)O` [L-cystine, reference compound], the solubility in the data set “physchem” (water) is approximately 0.5 mM (≈ 0.12 mg/mL).
As to `CN(C)c1ccc2nc3ccc(N(C)C)cc3[s+]c2c1` [methylene blue, Methylene blue], the “thiol per antibody of eluted, neutralized antibody” value in data set [3] worked out at 0.002 thiol per antibody.
As to `O=O` [oxygen], in data set [1] (sparging with oxygen at various percentages of dissolved O2), the protection against fragmentation result is recorded as “showed protection against fragmentation”.

For orientation: solubility means the concentration that dissolves in the medium under given conditions.
